Assay results published in patent US5241059A, “Cyclodextrin derivatives” (Toppan Printing Co., Ltd., priority 1990, dated 1993).
Where two headings read alike, the source gives them in different places.

Assays:
[1] = cited from earlier work

Row | Water Solubility (water) [g/100 ml H2 O] | Compound | also measured
1 |  | Hydroxypropyl β-CD | Water Solubility [1]: 115 g/100 ml H2 O
2 | > 300 | O=C(O)COCC1OC2OC3C(COCC(=O)O)OC(OC4C(COCC(=O)O)OC(OC5C(COCC(=O)O)OC(OC6C(COCC(=O)O)OC(OC7C(COCC(=O)O)OC(OC8C(COCC(=O)O)OC(OC1C(O)C2O)C(O)C8O)C(O)C7O)C(O)C6O)C(O)C5O)C(O)C4O)C(O)C3O (stereo not drawn) [Heptacarboxylic acid β-CD] | 
3 |  | C[N+](C)(C)CC1OC2OC3C(CO)OC(OC4C(CO)OC(OC5C(CO)OC(OC6C(CO)OC(OC7C(CO)OC(OC8C(CO)OC(OC1C(O)C2O)C(O)C8O)C(O)C7O)C(O)C6O)C(O)C5O)C(O)C4O)C(O)C3O.[Cl-] (stereo not drawn) [Monotrimethylammonium (chloride) β-CD] | Water Solubility (25° C.): > 200 g/100 ml H2 O
4 | > 250 | mono-6-dihydroxyphosphonyl-6-deoxy β-CD [Monophosphoric acid β-CD] | 
